According to patent US20220071971A1, “MACROCYCLIC COMPOUNDS AND THEIR USE IN THE TREATMENT OF DISEASE” (NOVARTIS AG, priority 2018, published 2022):

Target: T1, delF508-CFTR (Homo sapiens, UniProt P13569, DEL508-508)
T1 construct: expressed in transfected cells
Assay: Measurement of delF508-CFTR-HRP surface expression in CFBE41o- cells
Type: cell-based
Conditions: for EC50: HRP-tagged delF508-CFTR surface expression, CFBE41o- cells, 24 h with compound, 10-point curve, highest concentration 10 μM; for Emax: CFBE41o-, read-out: DelF508-CFTR-HRP Amax %
Outline: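 CFBE41o- cells stably expressing delF508-CFTR with HRP in the fourth extracellular loop, induced 48 h with 500 ng/mL doxycycline, then exposed to compound (10-point, 3-fold, top 10 μM, ≤0.5% DMSO) for 24 h at 37° C. Surface HRP read by luminescence with cell-impermeant substrate; EC50 by logistic fit, triplicates, efficacy relative to reference corrector.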

[1] = efficacy relative to reference compound 3-(6-(1-(2,2-difluorobenzo[d][1,3]dioxol-5-yl)cyclopropane-1-carboxamido)-3-methylpyridin-2-yl)benzoic acid

T1 sequence (P13569 with tags, fused parts or gaps DEL508-508): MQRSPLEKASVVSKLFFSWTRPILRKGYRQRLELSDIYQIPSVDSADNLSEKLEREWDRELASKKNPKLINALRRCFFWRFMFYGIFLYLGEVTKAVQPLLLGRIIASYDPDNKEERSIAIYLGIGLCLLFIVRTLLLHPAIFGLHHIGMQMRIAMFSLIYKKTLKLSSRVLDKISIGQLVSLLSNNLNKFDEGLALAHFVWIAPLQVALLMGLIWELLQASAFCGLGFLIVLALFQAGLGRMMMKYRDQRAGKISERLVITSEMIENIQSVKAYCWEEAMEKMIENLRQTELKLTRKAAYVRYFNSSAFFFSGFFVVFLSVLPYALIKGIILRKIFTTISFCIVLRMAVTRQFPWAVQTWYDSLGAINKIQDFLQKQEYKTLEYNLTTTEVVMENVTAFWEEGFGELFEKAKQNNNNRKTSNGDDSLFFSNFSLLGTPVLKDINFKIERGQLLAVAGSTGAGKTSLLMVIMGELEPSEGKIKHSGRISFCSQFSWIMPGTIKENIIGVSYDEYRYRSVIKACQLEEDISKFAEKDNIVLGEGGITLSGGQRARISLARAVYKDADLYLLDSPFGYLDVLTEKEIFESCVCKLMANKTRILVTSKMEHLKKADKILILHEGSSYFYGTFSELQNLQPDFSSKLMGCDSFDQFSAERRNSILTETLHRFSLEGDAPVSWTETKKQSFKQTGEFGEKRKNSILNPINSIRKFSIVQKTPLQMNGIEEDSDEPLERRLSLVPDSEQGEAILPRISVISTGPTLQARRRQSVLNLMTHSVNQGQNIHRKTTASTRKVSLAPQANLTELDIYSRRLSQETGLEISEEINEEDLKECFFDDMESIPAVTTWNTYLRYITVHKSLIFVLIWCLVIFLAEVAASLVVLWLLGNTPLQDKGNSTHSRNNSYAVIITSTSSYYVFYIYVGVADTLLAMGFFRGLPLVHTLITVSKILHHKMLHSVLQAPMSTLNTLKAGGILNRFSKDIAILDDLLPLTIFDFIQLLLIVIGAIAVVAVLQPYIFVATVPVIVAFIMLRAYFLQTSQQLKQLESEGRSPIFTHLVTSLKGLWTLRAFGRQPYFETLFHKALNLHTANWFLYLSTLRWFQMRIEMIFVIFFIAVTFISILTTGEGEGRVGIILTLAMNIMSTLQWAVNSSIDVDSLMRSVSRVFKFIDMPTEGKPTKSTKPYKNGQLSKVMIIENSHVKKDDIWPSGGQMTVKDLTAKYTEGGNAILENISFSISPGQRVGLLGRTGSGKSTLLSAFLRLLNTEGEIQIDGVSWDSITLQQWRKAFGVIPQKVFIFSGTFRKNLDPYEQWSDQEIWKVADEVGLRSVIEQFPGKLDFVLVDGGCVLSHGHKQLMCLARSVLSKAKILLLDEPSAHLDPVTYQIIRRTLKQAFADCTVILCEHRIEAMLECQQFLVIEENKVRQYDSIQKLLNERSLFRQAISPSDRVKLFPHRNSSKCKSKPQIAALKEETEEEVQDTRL

Row | SMILES | EC50 [µM] | Emax [1] [%] | DelF508-CFTR-HRP Amax % [1] [%]
1 | O=C(O)CCN1CCCCOc2ccc(F)cc2-c2nc(ccc2C(F)(F)F)NS(=O)(=O)c2cccc1n2 [Compound 81, 3-(1^5-fluoro-4,4-dioxido-2^3-(trifluoromethyl)-11-oxa-4-thia-3,6-diaza-2,5(2,6)-dipyridina-1(1,2)-benzenacycloundecaphane-6-yl)propanoic acid] | 2.33 | 527 | 
2 | O=C(O)CCN1CCCCCCc2ccccc2-c2nc(ccc2C(F)(F)F)NS(=O)(=O)c2cccc1n2 [Compound 84, 3-(4,4-dioxido-2^3-(trifluoromethyl)-4-thia-3,6-diaza-2,5(2,6)-dipyridina-1(1,2)-benzenacyclododecaphane-6-yl)propanoic acid] | 1.04 |  | 
3 | O=C(O)CCN1CCCCCCc2ccc(F)cc2-c2nc(ccc2C(F)(F)F)NS(=O)(=O)c2cccc1n2 [Compound 85, 3-(1^5-fluoro-4,4-dioxido-2^3-(trifluoromethyl)-4-thia-3,6-diaza-2,5(2,6)-dipyridina-1(1,2)-benzenacyclododecaphane-6-yl)propanoic acid] | 0.714 |  | 
4 | O=C(O)CCCN1CCCCCc2ccc(F)cc2-c2nc(ccc2C(F)(F)F)NS(=O)(=O)c2cccc1n2 [Compound 86, 4-(1^5-fluoro-4,4-dioxido-2^3-(trifluoromethyl)-4-thia-3,6-diaza-2,5(2,6)-dipyridina-1(1,2)-benzenacycloundecaphane-6-yl)butanoic acid] | 0.293 |  | 
5 | O=C(O)CCN1CCCCc2ccccc2-c2nc(ccc2C(F)(F)F)NS(=O)(=O)c2cccc1n2 [Compound 87, 3-(4,4-dioxido-2^3-(trifluoromethyl)-4-thia-3,6-diaza-2,5(2,6)-dipyridina-1(1,2)-benzenacyclodecaphane-6-yl)propanoic acid] | 1.42 | 306 | 
6 | O=C(O)CCCN1CCOCCCc2ccccc2-c2nc(ccc2C(F)(F)F)NS(=O)(=O)c2cccc1n2 [Compound 88, 4-(4,4-dioxido-2^3-(trifluoromethyl)-9-oxa-4-thia-3,6-diaza-2,5(2,6)-dipyridina-1(1,2)-benzenacyclododecaphane-6-yl)butanoic acid] | 2.07 |  | 
7 | O=C(O)CCN1CCCCCc2ccccc2-c2cccc(n2)NS(=O)(=O)c2cccc1n2 [Compound 93, 3-(4,4-dioxido-4-thia-3,6-diaza-2,5(2,6)-dipyridina-1(1,2)-benzenacycloundecaphane-6-yl)propanoic acid] | 2.65 | 179 | 
8 | O=C(O)C1(CN2CCCCCc3ccccc3-c3nc(ccc3C(F)(F)F)NS(=O)(=O)c3cccc2n3)CC1 [Compound 94, 1-((4,4-dioxido-2^3-(trifluoromethyl)-4-thia-3,6-diaza-2,5(2,6)-dipyridina-1(1,2)-benzenacycloundecaphane-6-yl)methyl)cyclopropane-1-carboxylic acid] | 0.566 | 737 | 
9 | O=C(O)C1(CN2CCOCCCc3ccccc3-c3nc(ccc3C(F)(F)F)NS(=O)(=O)c3cccc2n3)CC1 [Compound 95, 1-((4,4-dioxido-2^3-(trifluoromethyl)-9-oxa-4-thia-3,6-diaza-2,5(2,6)-dipyridina-1(1,2)-benzenacyclododecaphane-6-yl)methyl)cyclopropane-1-carboxylic acid] | 1.32 |  | 
10 | CC(C)(CN1CCCCCc2ccc(F)cc2-c2nc(ccc2C(F)(F)F)NS(=O)(=O)c2cccc1n2)C(=O)O [Compound 96, 3-(1^5-fluoro-4,4-dioxido-2^3-(trifluoromethyl)-4-thia-3,6-diaza-2,5(2,6)-dipyridina-1(1,2)-benzenacycloundecaphane-6-yl)-2,2-dimethylpropanoic acid] | 0.431 | 792 | 
11 | O=C(O)CCN1CCCCCc2ccc(F)cc2-c2nc(ccc2C(F)(F)F)NS(=O)(=O)c2cccc1n2 [Compound 97, 3-(1^5-fluoro-4,4-dioxido-2^3-(trifluoromethyl)-4-thia-3,6-diaza-2,5(2,6)-dipyridina-1(1,2)-benzenacycloundecaphane-6-yl)propanoic acid] | 0.747 | 728 | 
12 | O=C(O)CCCN1CCCOCc2ccccc2-c2nc(ccc2C(F)(F)F)NS(=O)(=O)c2cccc1n2 [Compound 102, 4-(4,4-dioxido-2^3-(trifluoromethyl)-10-oxa-4-thia-3,6-diaza-2,5(2,6)-dipyridina-1(1,2)-benzenacycloundecaphane-6-yl)butanoic acid] | 2.3 |  | 

Continued, values first:

Row | EC50 [µM] | Emax [1] [%] | DelF508-CFTR-HRP Amax % [1] [%] | SMILES
13 | 0.421 |  |  | O=C(O)CCCN1CCCCCCc2ccccc2-c2nc(ccc2C(F)(F)F)NS(=O)(=O)c2cccc1n2 [Compound 76, 4-(4,4-dioxido-2^3-(trifluoromethyl)-4-thia-3,6-diaza-2,5(2,6)-dipyridina-1(1,2)-benzenacyclododecaphane-6-yl)butanoic acid]
14 | 0.492 |  |  | O=C(O)CCCCN1CCCCCc2ccccc2-c2nc(ccc2C(F)(F)F)NS(=O)(=O)c2cccc1n2 [Compound 77, 5-(4,4-dioxido-2^3-(trifluoromethyl)-4-thia-3,6-diaza-2,5(2,6)-dipyridina-1(1,2)-benzenacycloundecaphane-6-yl)pentanoic acid]
15 | 0.293 |  |  | O=C(O)CCCCN1CCCCCCc2ccccc2-c2nc(ccc2C(F)(F)F)NS(=O)(=O)c2cccc1n2 [Compound 78, 5-(4,4-dioxido-2^3-(trifluoromethyl)-4-thia-3,6-diaza-2,5(2,6)-dipyridina-1(1,2)-benzenacyclododecaphane-6-yl)pentanoic acid]
16 | 1.6 |  |  | O=C(O)CCCN1CCCCCc2ccccc2-c2nc(ccc2Cl)NS(=O)(=O)c2cccc1n2 [Compound 79, 4-(2^3-chloro-4,4-dioxido-4-thia-3,6-diaza-2,5(2,6)-dipyridina-1(1,2)-benzenacycloundecaphane-6-yl)butanoic acid]
17 | 1.4 |  |  | O=C(O)CCCCN1CCCCc2ccccc2-c2nc(ccc2C(F)(F)F)NS(=O)(=O)c2cccc1n2 [Compound 80, 5-(4,4-dioxido-2^3-(trifluoromethyl)-4-thia-3,6-diaza-2,5(2,6)-dipyridina-1(1,2)-benzenacyclodecaphane-6-yl)pentanoic acid]
18 | 0.844 | 652 |  | O=C(O)CCCCCN1CCCCCc2ccccc2-c2nc(ccc2Cl)NS(=O)(=O)c2cccc1n2 [Compound 82, 6-(2^3-chloro-4,4-dioxido-4-thia-3,6-diaza-2,5(2,6)-dipyridina-1(1,2)-benzenacycloundecaphane-6-yl)hexanoic acid]
19 | 2.43 |  | 163.8 | COc1ccc2nc1-c1ccccc1CCCCCN(CCCC(=O)O)c1cccc(n1)S(=O)(=O)N2 [Compound 83, 4-(2^3-methoxy-4,4-dioxido-4-thia-3,6-diaza-2,5(2,6)-dipyridina-1(1,2)-benzenacycloundecaphane-6-yl)butanoic acid]
20 | 2.76 | 721 |  | O=C(O)CCCN1CCCCc2ccccc2-c2nc(ccc2Cl)NS(=O)(=O)c2cccc1n2 [Compound 91, 4-(2^3-chloro-4,4-dioxido-4-thia-3,6-diaza-2,5(2,6)-dipyridina-1(1,2)-benzenacyclodecaphane-6-yl)butanoic acid]
21 | 0.084 |  |  | O=C(O)CCCCN1CCCCCCCc2ccccc2-c2nc(ccc2C(F)(F)F)NS(=O)(=O)c2cccc1n2 [Compound 101, 5-(4,4-dioxido-2^3-(trifluoromethyl)-4-thia-3,6-diaza-2,5(2,6)-dipyridina-1(1,2)-benzenacyclotridecaphane-6-yl)pentanoic acid]
